Earlier results in US6683112B2, “Gabapentin prodrugs and formulations” (Andrx Corporation, priority 2000, dated 2004).

Columns and labels:
[1] = in water and in both basic and acidic conditions

In the case of `NCC1(CC(=O)O)CCCCC1` [Gabapentin, 1-(aminomethyl)cyclohexaneacetic acid], the metabolism (in humans) is given as “not extensively metabolized”, the route of elimination (in humans) is given as “eliminated via renal excretion essentially unchanged” and the oral bioavailability (typical dosage range 300-600 mgs T.I.D.) is given as “approximately sixty”. For the same molecule, the elimination half life (unaltered by dose or following multiple dosing) was “five to seven” and the solubility [1] was “highly soluble”.
